Test results published in patent publication US20240173440A1, “HIGH PURITY COPPER RADIOPHARMACEUTICAL COMPOSITIONS AND DIAGNOSTIC AND THERAPEUTIC USES THEREOF” (Nuclidium AG, priority 2022, published 2024).
pKd: −log10 of the molar value.

Columns and labels:
[1] = molecular target: hFAP (Homo sapiens (Human), UniProt Q12884); assay: Saturation binding on isolated HEK-293.hFAP cell membranes; settings: 37° C.
Method: The cells were homogenized using Ultra-Turrax, and the homogenized suspension was centrifuged at 500×g for 10 min at 4° C. The supernatant was collected in centrifuge tubes (Beckman Coulter Inc., Brea, CA, USA). This procedure was then repeated 5 times. The collected supernatant was centrifuged in an ultra-centrifuge (Beckman) at 4° C. for 55 min at 49,000×g. Then, the pellet was re-suspended in 10 mM ice-cold HEPES buffer (pH 7.5), aliquoted, and stored at −80° C. The protein concentration of those membrane suspensions was determined by the Bradford method, BSA as the standard.
Each assay tube contained 170 μL of binding buffer (20 mM HEPES, pH 7.4, containing 4 mM μgCl2, 0.2% BSA, 20 μg/L bacitracin, 20 μg/L PMSF and 200,000 KIU/L aprotinin). The incubation was initiated by adding 30 μL of radioligand solution at 10 times the final concentration and 100 μL of cell membrane suspension to yield 10 μg of protein per well. For the determination of the non-specific binding, 140 μL of the above binding buffer was added along with 30 μL of FAPI-46 to obtain (0.1 mM). Bound fractions were plotted versus the corresponding radioligand concentration at equilibrium. The dissociation constant (KD) and maximal binding capacity (Bmax) values were calculated using GraphPad Software Inc., Prism 7, San Diego, CA, USA (Table 33 and FIG. 21).

[2] = Lipophilicity, log D by shake-flask method (1-octanol/PBS pH 7.4); assay type: physicochemical; settings: shake-flask, Table 17, mean ± SD
Method: The radiotracer (1 μM) was added to a 50:50 pre-saturated mixture of 1-octanol and phosphate buffered saline (PBSpH 7.4). The solution was vortexed for 30 min and then centrifuged at 3,000 rpm to achieve a phase separation. Aliquots from each phase were collected and measured in a gamma-counter. The distribution coefficient was calculated as the average of the logarithmic values of the ratio between the radioactivity in the organic and the PBS phase.
Table 17. Lipophilicity expressed as the log distribution coefficient D (log D(Octanol/PBS pH7.4)) of ^61Cu-radiotracers versus ^68Ga-radiotracers (reference radiotracers).
In a pre-lubricated Eppendorf tube, a pre-saturated mixture of 500 μL of 1-octanol and 500 μL of PBS pH 7.4 (phosphate-buffered saline) were added. An aliquot of […] in 10 μL of the radioligand was added to this mixture, shaken for 30 min, and then centrifuged at 3000 rcf for 10 min to achieve phase separation. Aliquots of 100 μL were removed from the 1-octanol and from the PBS phases, and the activity was measured in a […]. The partition coefficient was calculated as the average log ratio value of the radioactivity in the organic fraction and PBS fraction.

[3] = system: LNCaP xenografts; assay: Quantitative biodistribution in LNCaP xenografted mice; assay type: in vivo; settings: LNCap xenograft mice, 1 h after injection
Method: The mice were randomly distributed in groups and euthanized at 1 and at 4 hours post-injection. The organs of interest were collected, rinsed, blotted, weighed and counted in a gamma counter. The results are expressed as percentage of injected activity per gram (% IA/g), representing the mean±standard deviation of n=4-8 mice per group and they were obtained by extrapolation from counts of an aliquot taken from the injected solution as standard.
The biodistribution of the [^61Cu]Cu-NODAGA radiotracers was compared with the reference compounds used in patients under identical experimental conditions. The mice were randomly distributed in groups, injected with the radiotracer under investigation and euthanized at 1 and at 4 hours post-injection of the radiotracers under investigation. The organs of interest were collected, rinsed, blotted, weighed and counted in a gamma counter. The results are expressed as percentage of injected activity per gram (% IA/g), representing the mean±standard deviation of all mice per group and they were obtained by extrapolation from counts of an aliquot taken from the injected solution as standard.

Sequence of hFAP (Q12884 whole entry): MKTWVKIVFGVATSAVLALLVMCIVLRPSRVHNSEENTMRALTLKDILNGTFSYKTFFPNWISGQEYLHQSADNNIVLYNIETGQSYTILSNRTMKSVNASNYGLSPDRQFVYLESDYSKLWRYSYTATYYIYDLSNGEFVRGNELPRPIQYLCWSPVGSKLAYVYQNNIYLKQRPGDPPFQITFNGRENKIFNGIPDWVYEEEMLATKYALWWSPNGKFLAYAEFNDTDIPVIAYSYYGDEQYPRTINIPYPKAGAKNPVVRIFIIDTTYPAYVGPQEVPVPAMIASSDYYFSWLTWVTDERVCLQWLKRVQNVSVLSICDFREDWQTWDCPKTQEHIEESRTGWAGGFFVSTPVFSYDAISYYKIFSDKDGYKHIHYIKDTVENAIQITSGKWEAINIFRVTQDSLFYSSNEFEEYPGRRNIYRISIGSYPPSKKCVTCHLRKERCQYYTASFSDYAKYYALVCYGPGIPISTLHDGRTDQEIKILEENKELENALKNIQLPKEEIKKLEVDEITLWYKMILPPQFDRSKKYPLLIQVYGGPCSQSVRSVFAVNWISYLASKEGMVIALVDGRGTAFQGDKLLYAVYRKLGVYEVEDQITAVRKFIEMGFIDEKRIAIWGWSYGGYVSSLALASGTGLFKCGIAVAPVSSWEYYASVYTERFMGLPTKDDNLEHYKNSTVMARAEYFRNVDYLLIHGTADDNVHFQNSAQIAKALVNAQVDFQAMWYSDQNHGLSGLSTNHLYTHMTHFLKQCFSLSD

| pKd [1] | log D(O/PBS pH 7.4) [2] | Biodistribution Adrenal [3] | Biodistribution Blood [3] | Biodistribution Bone [3] | Biodistribution Heart [3] | Biodistribution Intestine [3] | Biodistribution Kidney [3] | Biodistribution LNCaP-tumor [3] | Biodistribution Liver [3] | Biodistribution Lung [3] | Biodistribution Muscle [3] | Biodistribution Pancreas [3] | Biodistribution Salivary gland [3] | Biodistribution Spleen [3] | Biodistribution Stomach [3] | Ratio Tumor/Blood [3] | Ratio Tumor/Kidney [3] | Ratio Tumor/Liver [3] | Ratio Tumor/Muscles [3] | Compound |
| --- | --- | --- | --- | --- | --- | --- | --- | --- | --- | --- | --- | --- | --- | --- | --- | --- | --- | --- | --- | --- |
| 8.41 to 8.52 |  |  |  |  |  |  |  |  |  |  |  |  |  |  |  |  |  |  |  | CN(C(=O)CCC(=O)N1CCN(C(=O)CC[C@H](C(=O)O)N2CCN3CCN(CC2)CC(=O)[O][Cu][O]C(=O)C3)CC1)c1ccc2nccc(C(=O)NCC(=O)N3CC(F)(F)C[C@H]3C#N)c2c1 [[^61Cu]Cu-NODAGA-F4] |
|  | −3.89 ± 0.19 | 19.2 ± 5.35 % IA/g | 0.25 ± 0.07 % IA/g | 3.69 ± 1.86 % IA/g | 0.32 ± 0.10 % IA/g | 1.52 ± 0.60 % IA/g | 159 ± 31 % IA/g | 10.2 ± 1.53 % IA/g | 0.54 ± 0.27 % IA/g | 1.43 ± 0.43 % IA/g | 0.90 ± 0.36 % IA/g | 0.70 ± 0.12 % IA/g | 1.56 ± 0.31 % IA/g | 6.38 ± 1.37 % IA/g | 0.69 ± 0.11 % IA/g | 45.3 ± 19.7 | 0.07 ± 0.02 | 23.5 ± 12.5 | 13.6 ± 8.3 | O=C([O-])CN(CCN(CC(=O)[O-])Cc1cc(CCC(=O)NCCCCCC(=O)NCCCC[C@H](NC(=O)N[C@@H](CCC(=O)O)C(=O)O)C(=O)O)ccc1[O-])Cc1cc(CCC(=O)O)ccc1[O-].[68Ga+3].[OH3+] [[^68Ga]Ga-PSMA-11] |
